Values of other authors as cited in patent publication US8748086B2, “Aqueous solution for the preservation of tissues and organs” (Universidad de Barcelona, priority 2008, dated 2014).

Columns and labels:
[1] = tested on: non-steatotic and steatotic livers; settings: prolonged ischemic periods; Ben Mosbah et al. 2006
hearts = settings: tacrolimus in UW preservation solution; Rajesh et al. 2003

| SMILES | capacity of the preservation solution to protect livers [1] | effect on preservation of hearts (hearts) |
| --- | --- | --- |
| COc1ccc(CN2CCNCC2)c(OC)c1OC [trimetazidine] | improved the capacity of this standard preservation solution to protect | – |
| C=CC[C@@H]1/C=C(\C)C[C@H](C)C[C@H](OC)[C@H]2O[C@@](O)(C(=O)C(=O)N3CCCC[C@H]3C(=O)O[C@H](/C(C)=C/[C@@H]3CC[C@@H](O)[C@H](OC)C3)[C@H](C)[C@@H](O)CC1=O)[C@H](C)C[C@@H]2OC [tacrolimus, Tacrolimus] | – | failed to have any effect on preservation |
